{"source": "patent US20260265700A1", "about": "“NEURAL BIOHYBRID MANUFACTURED USING REDUCED GRAPHENE OXIDE NANOPARTICLES, NEUROMUSCULAR JUNCTION MODEL USING SAME, AND DRUG SCREENING METHOD USING SAME” (Sogang University Research & Business Development Foundation, priority 2023, published 2026)", "test_system": "NMJs manufactured using ALS neural biohybrids", "assay": "Muscle bundle contraction in 3D ALS-neuromuscular junction model", "type": "cell-based, human", "conditions": "ALS-NMJ", "procedure": "First, a hydrogel used for the 3D muscle bundles was prepared using a mixture of 340 μl of C2C12, 30% Matrigel, 250 μl of 16 mg/ml […], 10 μl of thrombin (0.5 U/1 mg fibrinogen) and 100 μl of DMEM.\nAfter culturing for 4 days, the medium was replaced with DMEM supplemented with 2% horse serum, 100 U/mL penicillin-G, 100 μg/mL streptomycin, 1 mg/mL aminocaproic acid, and 1 ng/mL insulin growth factor-1 (IGF-1) as a muscle cell differentiation medium. The medium was changed every 2 days, and differentiation was carried out for 14 days or more.\nThe co-culture differentiation medium, along with muscle differentiation medium, was supplemented with brain-derived and glial cell line-derived neurotrophic factors (10 ng/ml BDNF and 10 ng/ml GDNF) to support viability of multiple neural biohybrids. The differentiation medium was replaced every two days for two weeks.", "data": [{"smiles": "COc1cc(Nc2c(C#N)cnc3cc(OCCCN4CCN(C)CC4)c(OC)cc23)c(Cl)cc1Cl", "note": "[bosutinib]", "values": [{"measurement": "contraction of the muscle bundle relative to muscle movement of normal NMJs", "setting": "after 5 days of treatment, FIG. 3C", "value": "approximately 85%"}, {"measurement": "concentration giving the greatest recovery of muscle movement", "setting": "various concentrations tested, FIGS. 3D and 3E", "value": 100, "unit": "µM"}]}]}
